Results reported in publication PMC6917776, “Discovery of a chemical probe for PRDM9” (Nature Communications, 2019).
Where two headings read alike, the source gives them in different places.

Experiments:
[1] = target: T1, DNMT3B/3L (Homo sapiens, UniProt Q9UBC3); assay: Methyltransferase selectivity assay (filter-based); format: biochemical; conditions: for activity at 1 µM: 1µM compound; for activity at 10 µM / Activity %: 10µM compound; for Activity %: Exp1, Exp2, 10 µM
T1 construct: purchased Structural Genomics Consortium (SGC Toronto) in-house methyltransferase panel
Procedure: Selectivity against methyltransferases were determined as described previously. Details of the assays are described in the supplementary methods.
Methyltransferase selectivity assay1
The effect of chemical probes and negative controls on the methyltransferase activities of protein, DNA and RNA methyltransferases was tested by radiometric assays using 3H-SAM. […]
The counts per minute (CPM) was measured on a TopCount plate reader. The CPM in the absence of compound or enzyme was defined as 100% activity and background (0%), respectively, for each dataset. […]
For proteins which were tested with nucleosome as substrate such as DOT1L, NSD1, NSD2, NSD3, and ASH1L, or unbiotinylated Poly(2′-deoxyinosinic-2′-deoxycytidylic acid) (Cat# 81349-500UG, Sigma Aldrich) such as DNMT3A/3L, and DNMT3B/3L, a filter-based assay was used. In this assay, a trichloroacetic acid (TCA) protein precipitation protocol was employed. A 10 µL reaction mixture was incubated at 23°C for 1 h, followed by addition of 50 µL of 10% TCA. The mixture was transferred to filter plates (Millipore, Billerica, MA, USA) that were centrifuged at 2000 rpm (Allegra X-15R; Beckman Coulter, Brea, CA, USA) for 2 min. Samples were washed twice with 10% TCA and once with ethanol (180 µL), and centrifuged. After drying, 100 µL MicroScint-O (Perkin Elmer) was added to each well and the plates were centrifuged to remove the liquid. A 70 µL volume of MicroScint-O was added and the CPM was measured with a TopCount plate reader.

[2] = system: CAL851; assay: CelltiterGlo viability cell assay; format: cell-based; conditions: up to 30 μM; days 3 and 6; Prdm9 expressing line
In short: (§1)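 Mycoplasma-negative lines were plated at line-specific densities and treated with a compound titration (0.01–30 μM); CelltiterGlo signal at day 3 or 6 was referenced to DMSO control.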

[3] = system: RPMI-8226; assay: CelltiterGlo viability cell assay; format: cell-based; conditions: up to 30 μM; days 3 and 6; matched control line
In short: as §1

[4] = system: SKMM2; assay: CelltiterGlo viability cell assay; format: cell-based; conditions: up to 30 μM; days 3 and 6; Prdm9 expressing line
In short: as §1

[5] = Exp1, Exp2, read-out: Activity %

COc1cc(OC)cc(-c2noc(N3CCN(C)C4(CCN(c5ccccc5)CC4)C3)n2)c1 [MRK-740 -NC]
activity at 1 µM ([1]; Exp1, Exp2): 101%
activity at 10 µM ([1]; Exp1, Exp2): 99%
Activity % [1]: 97%

COc1cc(OC)cc(-c2noc(N3CCN(C)C4(CCN(c5ccnc(C)c5)CC4)C3)n2)c1 [MRK-740]
activity at 1 µM [1, 5]: 100%
Activity % [1]: 90%
activity at 10 µM [1, 5]: 82%
Effect on proliferation (in words) [2]: did not have any significant effect
Effect on proliferation (in words) [3]: did not have any significant effect
Effect on proliferation (in words) [4]: did not have any significant effect
